Here are results for 13 molecules from patent US10519111B2, “UV absorbing compounds, compositions comprising same and uses thereof” (CORAL SUNSCREEN PTY LTD, priority 2013, dated 2019).

Each structure is given as a SMILES string. Several values for one entry are separate records, joined by “and”; a condition that tells them apart may be missing. Identical values can stand only once.

The nature of the series: UV absorption properties (λmax, molar extinction coefficient ε, efficiency E 1%, 1 cm). Format: physicochemical. To be noted: for ε (molar extinction coefficient): values in order of the λmax values.
[1] abbreviates: Table 6A, N-isobutyl-C3-benzoyl compounds.

`CC(C)CN1C=C(C(=O)CCC=Cc2ccc(COc3ccc(C(=O)CC(=O)c4ccc(C(C)(C)C)cc4)cc3)cc2)C(C)(C)CC1` (racemic) [Compound 10, 1-(4-(tert-butyl)phenyl)-3-(4-((4-(5-(1-isobutyl-4,4-dimethyl-1,4,5,6-tetrahydropyridin-3-yl)-5-oxopent-1-en-1-yl)benzyl)oxy)phenyl)propane-1,3-dione]: the “UV λmax” value is 314 nm and 357 nm; the “ε (molar extinction coefficient)” value is 23250 M⁻¹ cm⁻¹ and 24050 M⁻¹ cm⁻¹.

On to `CC1(C)CCN(c2ccc(C(C)(C)C)cc2)C=C1C(=O)C(c1ccccc1)c1ccccc1` [Compound 204, 1-(1-(4-(tert-butyl)phenyl)-4,4-dimethyl-1,4,5,6-tetrahydropyridine-3-yl)-2,2-diphenylethanone], for which the “UV λmax” value was 337 nm and the “ε (molar extinction coefficient)” value stood at 17793 M⁻¹ cm⁻¹. Besides, the ε value entry (unit not given) is recorded as “approximately 18000”.

For `COc1ccc(C(=O)C2=CN(CC(C)C)CCC2(C)C)cc1` [drawing 52], for the setting “Table 2, compounds 11-13”, the λmax is 319 nm.

Take `CC1(C)CCN(c2ccc(C(C)(C)C)cc2)C=C1C(=O)Nc1ccccc1` [Compound 193, 1-(4-(tert-butyl)phenyl)-4,4-dimethyl-N-phenyl-1,4,5,6-tetrahydropyridine-3-carboxamide]: the “UV λmax” value turned out to be 324 nm and the “ε (molar extinction coefficient)” value was 35759 M⁻¹ cm⁻¹.

Turning to `COc1ccc(C(=O)C(CCCCCC(=O)C2=CN(CC(C)C)CCC2(C)C)C(=O)c2ccc(C(C)(C)C)cc2)cc1` (centres unmarked) [drawing 45], under “Table 1, covalently coupled compounds”, the λmax turned out to be 306 nm.

For `CC(C)CN1C=C(C(=O)/C=C/c2ccccc2)C(C)(C)CC1` [Compound 31, (E)-1-(1-Isobutyl-4,4-dimethyl-1,4,5,6-tetrahydropyridin-3-yl)-3-phenylprop-2-en-1-one], the “UV λmax” value is on record as 360 nm and the “ε (molar extinction coefficient)” value was determined as 16000 M⁻¹ cm⁻¹.

`CC1(C)C=CN(c2ccccc2)C=C1` [Compound 50, 4,4-dimethyl-1-phenyl-1,4-dihydropyridine]: the “UV λmax” value is given as 285 nm and the “ε (molar extinction coefficient)” value came out at 16000 M⁻¹ cm⁻¹.

As to `CC(C)CN1C=C(C(=O)c2ccc3c(c2)CCO3)C(C)(C)CC1` [Compound 18, (2,3-dihydrobenzofuran-5-yl)(1-isobutyl-4,4-dimethyl-1,4,5,6-tetrahydropyridin-3-yl)methanone], the “UV λmax” value was 320 nm and the “ε (molar extinction coefficient)” value came to 22000 M⁻¹ cm⁻¹.

For the molecule `CC1(C)CCN(C(C)(C)C)C=C1C(=O)c1ccncc1` [Compound 169, (1-(tert-butyl)-4,4-dimethyl-1,4,5,6-tetrahydropyridin-3-yl)(pyridin-4-yl)methanone], the “UV λmax” value came to 316 nm and the “ε (molar extinction coefficient)” value came out at 23556 M⁻¹ cm⁻¹.

On to `CC(C)CN1C=C(C(=O)c2ccc(C(=O)C3=CN(CC(C)C)CCC3(C)C)cc2)C(C)(C)CC1` [Compound 21, 1,4-phenylenebis ((1-isobutyl-4,4-dimethyl-1,4,5,6-tetrahydropyridin-3-yl)methanone)], for which the “UV λmax” value turned out to be 320 nm and the “ε (molar extinction coefficient)” value was determined as 20000 M⁻¹ cm⁻¹.

Consider `CC(C)CN1C=C(C(=O)c2ccc(Br)cc2)C(C)(C)CC1` [drawing 84], for which, where the note is “Table 6A”, the “E (1%, 1 cm)” value stood at 642 and the ε came out at 22500 M⁻¹ cm⁻¹. The same molecule came in with a λmax under setting [1] of 318 nm.

Turning to `CC(C)CN1C=C(C(=O)c2ccccc2)C(C)(C)CC1` [drawing 87], under “Table 6A”, the “E (1%, 1 cm)” value came to 701 and the ε came to 19000 M⁻¹ cm⁻¹. The molecule also came in with a λmax under setting [1] of 316 nm.

Turning to `CC1(C)CCN(c2cccc3ccccc23)C=C1C(=O)C(F)(F)F` [Compound 198, 1-(4,4-dimethyl-1-(naphthalen-1-yl)-1,4,5,6-tetrahydropyridine-3-yl)-2,2,2-trifluoroethanone], the “UV λmax” value stood at 325 nm.
